Results on seven compounds are retold here after US9399637B2, “Substituted heteroaryl compounds and methods of use” (Calitor Sciences, LLC, priority 2014, dated 2016).

Data set [1] can be described thus: Compound stability in human liver microsomes. Format: in vitro ADME. The settings on record: pH 7.4; for half-life at 5 μM: human liver microsomes 0.5 mg protein/mL, compound 5 μM, NADPH, 37° C., read-out: Human T1/2; for CLint scaled at 5 μM: human liver microsomes, in vivo CLint extrapolated. As for the experimental part:
(§1) Human or rat liver microsomes incubations were conducted in duplicate in polypropylene tubes. The typical incubation mixtures consisted of human or rat liver microsomes (0.5 mg protein/mL), compounds of interest (5 μM) and NADPH (1.0 mM) in a total volume of 200 μL potassium phosphate buffer (PBS, 100 mM, pH 7.4). Compounds were dissolved in DMSO and diluted with PBS such that the final concentration of DMSO was 0.05%. The enzymatic reactions were commenced with the addition of […] after a 3-min preincubation and incubated in a water bath open to the air at 37° C. Reactions were terminated at various time points (0, 5, 10, 15, 30, 60 min) by adding equal volume of ice-cold acetonitrile. The samples were stored at […] until LC/MS/MS assays.
(§2) The concentrations of compounds in the incubation mixtures of human or rat liver microsomes were determined by a LC/MS/MS method. The ranges of the linearity in the concentration range were determined for each tested compounds.
(§3) A parallel incubation was performed using denatured microsomes as the negative control, and reactions were terminated at various time points (0, 15, 60 min) after incubation at 37° C.
(§4) Dextromethorphan (70 μM) was selected as the positive control, and reactions were terminated at various time points (0, 5, 10, 15, 30, 60 min) after incubation at 37° C. Both positive and negative control samples were included in each assay to ensure the integrity of the microsomal incubation system.
(§5) The concentrations of compounds in human or rat liver microsome incubations were plotted as a percentage of the relevant zero time point control for each reaction. The in vivo CLint were extrapolated (ref.: Naritomi, Y.; Terashita, S.; Kimura, S.; Suzuki, A.; Kagayama, A.; and Sugiyama, Y.; Prediction of human hepatic clearance from in vivo animal experiments and in vitro metabolic studies with liver microsomes from animals and humans. Drug Metab. Dispos., 2001, 29: 1316-1324).

A short description of data set [2]: Compound stability in rat liver microsomes. The following applies: pH 7.4; for half-life at 5 μM: rat liver microsomes 0.5 mg protein/mL, compound 5 μM, NADPH, 37° C., read-out: Rat T1/2; for CLint scaled at 5 μM: rat liver microsomes, in vivo CLint extrapolated. In kind it is in vitro ADME. As for the experimental part: as §1, §2, §3, §4, §5
Data set [3] is described as follows: Pharmacokinetics after intravenous and oral administration in rats. Format: in vivo. The following applies: iv dosing, 1 mg/kg; for AUC(0-t) / half-life / Vd: rat, plasma; for Vd: read-out: Vss. As for the experimental part:
The LC/MS/MS system used in the analysis consists of an Agilent 1200 Series vacuum degasser, binary pump, well-plate autosampler, thermostatted column compartment, the Agilent G6430 Triple Quadrupole Mass Spectrometer with an electrosprayionization (ESI) source. Quantitative analysis was carried out using MRM mode. The parameters for MRM transitions are in the Table A.
An Agilent XDB-C18, 2.1×30 mm, 3.5 μM column was used for the analysis. 5 μL of the samples were injected. Analysis condition: The mobile phase was 0.1% formic acid in water (A) and 0.1% formic acid in methanol (B). The flow rate was 0.4 mL/min. And the gradient of Mobile phase was in the Table B.
Alternatively, an Agilent 6330 series LC/MS/MS spectrometer equipped with G1312A binary pumps, a G1367A autosampler and a G1314C UV detector were used in the analysis. An ESI source was used on the LC/MS/MS spectrometer. The analysis was done in positive ion mode as appropriate and the MRM transition for each analyte was optimized using standard solution. A Capcell MP-C18 100×4.6 mm I.D., […] column (Phenomenex, Torrance, Calif., USA) was used during the analysis. The mobile phase was 5 mM ammonia acetate, 0.1% MeOH in water (A): 5 mM ammonia acetate, 0.1% MeOH in acetonitrile (B) (70:30, v/v). The flow rate was 0.6 mL/min. Column was maintained at ambient temperature. 20 μL of the samples were injected.
The compounds disclosed herein are assessed in pharmacokinetic studies in mice, rats, dogs or monkeys. The compounds are administered as a water solution, 2% HPMC+1% TWEEN®80 in water solution, 5% DMSO+5% solutol in saline, 4% MC suspension or capsule. For the intravenous administration, the animals are generally given at 1 or 2 mg/kg dose. For the oral (p.o.) dosing, mice and rats are generally given 5 or 10 mg/kg dose, and dogs and monkeys are generally given 10 mg/kg dose. The blood samples (0.3 mL) are drawn at 0.25, 0.5, 1.0, 2.0, 3.0, 4.0, 6.0, 8.0, 12 and 24 h time points or 0.083, 0.25, 0.5, 1.0, 2.0, 4.0, 6.0, 8.0 and 24 h time points and centrifuged at 3,000 or 4000 rpm for 2 to 10 min. The plasma solutions are collected, and stored at −20° C. or −70° C. until analyzed by LC/MS/MS as described above.

A further data set has as its target T1, JAK1 (h) (Homo sapiens, UniProt P23458).
T1 construct: purchased Millipore UK Ltd (assays run there as a service)
Description: JAK1 kinase assay. Format: biochemical. As for the experimental part:
(§6) Kinase assays can be performed by measurement of incorporation of γ-^33P ATP into immobilized myelin basic protein (MBP). High binding white 384 well plates (Greiner) are coated with MBP (Sigma #M-1891) by incubation of 60 μL/well of 20 μg/mL MBP in Tris-buffered saline (TBS; 50 mM Tris pH 8.0, 138 mM NaCl, 2.7 mM KCl) for 24 h at 4° C. Plates are washed 3× with 100 μL TBS. Kinase reactions are carried out in a total volume of 34 μL in kinase buffer (5 mM Hepes pH 7.6, 15 mM NaCl, 0.01% bovine gamma globulin (Sigma #I-5506), 10 mM MgCl2, 1 mM DTT, 0.02% TritonX-100). Compound dilutions are performed in DMSO and added to assay wells to a final DMSO concentration of 1%. Each data point is measured in duplicate, and at least two duplicate assays are performed for each individual compound determination. Enzyme is added to final concentrations of 10 nM or 20 nM, for example. A mixture of unlabeled ATP and γ-^33P ATP is added to start the reaction (2×10^6 cpm of γ-^33P ATP per well (3000 Ci/mmole) and 10 μM unlabeled ATP, typically. The reactions are carried out for 1 h at room temperature with shaking Plates are washed 7× with TBS, followed by the addition of 50 μL/well scintillation fluid (Wallac). Plates are read using a Wallac Trilux counter. This is only one format of such assays; various other formats are possible, as known to one skilled in the art.
(§7) The above assay procedure can be used to determine the IC50 for inhibition and/or the inhibition constant, Ki. The IC50 is defined as the concentration of compound required to reduce the enzyme activity by 50% under the condition of the assay. The IC50 value is estimated by preparing a 10 point curve using a ½ log dilution series (for example, a typical curve may be prepared using the following compound concentrations: 3 μM, 1 μM, 0.3 μM, 0.1 μM, 0.03 μM, 0.01 μM, 0.003 μM, 0.001 μM, 0.0003 μM and 0 μM).
JAK1 (h) is incubated with 20 mM Tris/HCl pH 7.5, 0.2 mM EDTA, 500 μM […], 10 mM MgAcetate and [γ-^33P-ATP] (specific activity approx. 500 cpm/pmol, concentration as required).
(§8) The kinase assays described herein were performed at Millipore UK Ltd, Dundee Technology Park, Dundee DD2 1SW, UK.

Another data set has as its target T2, JAK2 (h) (Homo sapiens, UniProt O60674).
T2 construct: purchased Millipore UK Ltd (assays run there as a service)
Put plainly: JAK2 kinase assay. In kind it is biochemical. As for the experimental part: as §6, §7
(specific activity approx. 500 cpm/pmol, concentration as required).
as §8

T1 sequence (P23458 whole entry): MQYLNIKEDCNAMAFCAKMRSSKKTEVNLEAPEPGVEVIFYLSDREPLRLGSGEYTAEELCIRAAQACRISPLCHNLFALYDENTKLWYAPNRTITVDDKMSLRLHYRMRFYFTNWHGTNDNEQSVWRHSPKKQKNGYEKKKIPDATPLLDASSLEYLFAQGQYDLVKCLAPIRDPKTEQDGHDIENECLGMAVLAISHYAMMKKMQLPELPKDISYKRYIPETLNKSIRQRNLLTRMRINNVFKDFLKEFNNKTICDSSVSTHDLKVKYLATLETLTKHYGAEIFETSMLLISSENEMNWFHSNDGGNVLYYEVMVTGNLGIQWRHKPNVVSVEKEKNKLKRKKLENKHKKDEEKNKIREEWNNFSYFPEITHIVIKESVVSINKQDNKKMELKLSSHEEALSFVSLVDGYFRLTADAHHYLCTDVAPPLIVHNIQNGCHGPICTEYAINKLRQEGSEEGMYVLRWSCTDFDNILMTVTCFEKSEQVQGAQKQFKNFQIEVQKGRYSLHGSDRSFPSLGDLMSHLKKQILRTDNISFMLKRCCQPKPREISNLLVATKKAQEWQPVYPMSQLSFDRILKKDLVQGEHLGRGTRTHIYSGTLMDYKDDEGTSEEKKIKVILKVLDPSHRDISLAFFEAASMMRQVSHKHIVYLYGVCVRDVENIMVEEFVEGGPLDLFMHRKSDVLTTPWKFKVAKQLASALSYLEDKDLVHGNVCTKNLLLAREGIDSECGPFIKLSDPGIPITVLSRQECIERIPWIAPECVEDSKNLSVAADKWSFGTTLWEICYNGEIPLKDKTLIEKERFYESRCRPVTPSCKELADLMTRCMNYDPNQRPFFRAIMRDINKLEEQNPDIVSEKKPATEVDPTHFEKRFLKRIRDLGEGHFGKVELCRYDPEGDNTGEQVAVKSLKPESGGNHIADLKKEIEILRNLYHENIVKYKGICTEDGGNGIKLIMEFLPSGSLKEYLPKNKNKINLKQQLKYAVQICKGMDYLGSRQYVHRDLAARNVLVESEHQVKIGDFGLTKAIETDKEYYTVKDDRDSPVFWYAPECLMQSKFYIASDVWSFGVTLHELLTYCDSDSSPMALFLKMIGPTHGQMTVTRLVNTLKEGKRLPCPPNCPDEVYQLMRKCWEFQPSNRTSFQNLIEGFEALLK
T2 sequence (O60674 whole entry): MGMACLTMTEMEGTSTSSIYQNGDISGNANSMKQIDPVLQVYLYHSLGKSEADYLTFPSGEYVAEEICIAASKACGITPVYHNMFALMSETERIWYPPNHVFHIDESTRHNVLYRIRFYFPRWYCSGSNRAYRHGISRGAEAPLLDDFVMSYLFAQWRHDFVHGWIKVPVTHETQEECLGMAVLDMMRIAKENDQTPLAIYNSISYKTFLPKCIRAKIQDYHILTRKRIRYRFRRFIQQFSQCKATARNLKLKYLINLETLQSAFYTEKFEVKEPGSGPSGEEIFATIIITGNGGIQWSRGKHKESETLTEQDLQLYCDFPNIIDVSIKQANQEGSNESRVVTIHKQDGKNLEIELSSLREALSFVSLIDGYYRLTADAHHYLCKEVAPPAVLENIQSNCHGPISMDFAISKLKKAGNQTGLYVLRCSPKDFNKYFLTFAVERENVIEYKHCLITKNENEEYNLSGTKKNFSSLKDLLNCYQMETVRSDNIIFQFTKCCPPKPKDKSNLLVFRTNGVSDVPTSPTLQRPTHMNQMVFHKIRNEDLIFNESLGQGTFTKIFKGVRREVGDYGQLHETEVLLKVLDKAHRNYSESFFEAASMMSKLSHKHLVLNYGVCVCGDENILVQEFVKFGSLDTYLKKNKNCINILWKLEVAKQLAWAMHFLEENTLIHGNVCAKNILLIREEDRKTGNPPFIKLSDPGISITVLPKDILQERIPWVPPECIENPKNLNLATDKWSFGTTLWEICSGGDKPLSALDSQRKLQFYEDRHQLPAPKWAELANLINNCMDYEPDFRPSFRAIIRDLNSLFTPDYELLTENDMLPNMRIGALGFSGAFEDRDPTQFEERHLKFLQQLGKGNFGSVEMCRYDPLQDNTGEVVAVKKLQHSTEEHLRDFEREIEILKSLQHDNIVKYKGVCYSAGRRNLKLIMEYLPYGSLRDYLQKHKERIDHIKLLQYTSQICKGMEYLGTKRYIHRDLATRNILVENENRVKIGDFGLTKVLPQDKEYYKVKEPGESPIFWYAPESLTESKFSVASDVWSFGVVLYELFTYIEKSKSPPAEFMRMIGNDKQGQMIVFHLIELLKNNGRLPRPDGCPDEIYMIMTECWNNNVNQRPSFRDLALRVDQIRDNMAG

Take `Cc1c2ccc(Nc3nccc(N(C)C4CCC5(CC4)CCN(C(=O)CC#N)C5)n3)cc2nn1C` (stereo not drawn) [Ex. 2, 3-(8-((2-((2,3-dimethyl-2H-indazol-6-yl)amino)pyrimidin-4-yl)(methyl)amino)-2-azaspiro[4.5]decan-2-yl)-3-oxopropanenitrile]: in data set [1], the half-life at 5 μM came out at 20.3 min and the CLint scaled at 5 μM was 85.5 mL/min/kg. In addition, in data set [2], the half-life at 5 μM was 22.2 min and the CLint scaled at 5 μM was 112 mL/min/kg. In addition, in data set [3], the Cl/F amounted to 49.8 mL/min/kg, the AUC(0-t) worked out at 332 ng·h/mL, the half-life was 109 min and the Vd is 3.59 L/kg.
On to `Cc1c2ccc(Nc3ncc(Cl)c(NC4CCC5(CC4)CCN(C(=O)CC#N)CC5)n3)cc2nn1C` [Ex. 6, 3-(9-((5-chloro-2-((2,3-dimethyl-2H-indazol-6-yl)amino)pyrimidin-4-yl)amino)-3-azaspiro[5.5]undecan-3-yl)-3-oxopropanenitrile], for which, in data set [1], the half-life at 5 μM is 79.8 min and the CLint scaled at 5 μM was 21.8 mL/min/kg. Moreover, in data set [2], the half-life at 5 μM is 41 min and the CLint scaled at 5 μM is 60.6 mL/min/kg. Also, in data set [3], the Cl/F turned out to be 22.3 mL/min/kg, the AUC(0-t) is 743 ng·h/mL, the half-life was 78.6 min and the Vd turned out to be 2.55 L/kg. This compound also showed a 50% inhibitory concentration (IC50) against JAK1 (h) of 0.6 nM. Besides, the IC50 at JAK2 (h) turned out to be 2 nM.
Consider `Cc1cnc(Nc2ccc3c(C)n(C)nc3c2)nc1NC1CC2CN(C(=O)CC#N)CC2C1` (stereo not drawn) [Ex. 9, 3-(5-((2-((2,3-dimethyl-2H-indazol-6-yl)amino)-5-methylpyrimidin-4-yl)amino)hexahydrocyclopenta[c]pyrrol-2(1H)-yl)-3-oxopropanenitrile], for which, in data set [1], the half-life at 5 μM amounted to 31.2 min and the CLint scaled at 5 μM is 55.7 mL/min/kg. Moreover, in data set [2], the half-life at 5 μM was 52.7 min and the CLint scaled at 5 μM is 47.1 mL/min/kg. It took 2 nM to reach half-maximal inhibition against JAK1 (h) (IC50).
As for `Cc1cnc(Nc2ccc3c(C)n(C)nc3c2)nc1NC1CC2CN(S(C)(=O)=O)CC2C1` (stereo not drawn) [Ex. 10, N^2-(2,3-dimethyl-2H-indazol-6-yl)-5-methyl-N^4-(2-(methylsulfonyl)octahydrocyclopenta[c]pyrrol-5-yl)pyrimidine-2,4-diamine], in data set [1], the half-life at 5 μM was 20 min and the intrinsic metabolic clearance (CLint scaled) at 5 μM was 87 mL/min/kg. Moreover, in data set [2], the half-life at 5 μM was 50.7 min and the CLint scaled at 5 μM is 49 mL/min/kg. In data set [3], the Cl/F is 33.2 mL/min/kg, the AUC(0-t) was found to be 501 ng·h/mL, the half-life was 43.8 min and the Vd worked out at 1.75 L/kg. Also, on JAK1 (h), the IC50 came to 7 nM.
As to `CC(=O)N1CC2CC(Nc3nc(Nc4ccc5c(C)n(C)nc5c4)ncc3C)CC2C1` (stereo not drawn) [Ex. 11, 1-(5-((2-((2,3-dimethyl-2H-indazol-6-yl)amino)-5-methylpyrimidin-4-yl)amino)hexahydrocyclopenta[c]pyrrol-2(1H)-yl)ethanone], on JAK1 (h), the midpoint of inhibition, the IC50, lay at 57 nM.
`Cc1cnc(Nc2ccc3c(C)n(C)nc3c2)nc1NC1CCC2(CC1)CCN(C(=O)CC#N)CC2` [Ex. 12, 3-(9-((2-((2,3-dimethyl-2H-indazol-6-yl)amino)-5-methylpyrimidin-4-yl)amino)-3-azaspiro[5.5]undecan-3-yl)-3-oxopropanenitrile]: in data set [1], the half-life at 5 μM is 166 min and the CLint scaled at 5 μM was 10.4 mL/min/kg. In addition, in data set [2], the half-life at 5 μM is 57.8 min and the CLint scaled at 5 μM is 43 mL/min/kg. In addition, in data set [3], the Cl/F came to 114 mL/min/kg, the AUC(0-t) was determined as 144 ng·h/mL, the half-life is 54 min and the Vd came out at 5.71 L/kg. Moreover, half-maximal inhibition at JAK1 (h) (IC50) was put at 1 nM.
For `CC(=O)N1CCC2(CCC(Nc3nc(Nc4ccc5c(C)n(C)nc5c4)ncc3C)CC2)CC1` [Ex. 13, 1-(9-((2-((2,3-dimethyl-2H-indazol-6-yl)amino)-5-methylpyrimidin-4-yl)amino)-3-azaspiro[5.5]undecan-3-yl)ethanone], in data set [1], the half-life at 5 μM is 51.7 min and the CLint scaled at 5 μM was 33.6 mL/min/kg. In data set [2], the half-life at 5 μM was determined as 27.9 min and the CLint scaled at 5 μM is 89.2 mL/min/kg. For the same compound, in data set [3], the Cl/F was found to be 75.5 mL/min/kg, the AUC(0-t) turned out to be 238 ng·h/mL, the half-life was 38.4 min and the Vd is 3.5 L/kg. Besides, the IC50 at JAK1 (h) stood at 2 nM.

Usually CLint scaled stands for the rate of metabolic loss divided by the concentration. The term AUC(0-t) denotes exposure summed from dosing to a finite time, without extrapolation to infinity. Low readings indicate low exposure, high ones high exposure. Usually IC50 stands for the point on the concentration scale where inhibition reaches its midpoint. A low value points to greater potency.
